Results: the supplement of paper PMC10307832

Experiments:
Experiment in all cases: relative viability (nuclei count vs DMSO), 5 days (fraction); higher = more cells survive
[1] = compound: C1CNCCC1C2=CC(=NN2)C3=CC=NC=C3 + Cc1cc(Nc2cc(N3CCN(C)CC3)nc(Sc3ccc(NC(=O)C4CC4)cc3)n2)n[nH]1 [Tozasertib] (partner 0.1 µM)
Method in brief: (§1)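 Relative viability divides the nuclei count in treated wells by that in vehicle wells. Lung cancer cell lines were seeded in 1536-well plates, dosed by pin tool the next day, and fixed and stained after 5 days in one step with final 0.05% Triton X-100, 1% formaldehyde and 1 ug/ml Hoechst. Dosing was a single drug or a fixed anchor-drug dose plus five library-drug doses (not always all listed) in √10 steps, and values are medians of duplicate plates imaged at 4×.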

[2] = compound: C[C@@H](N)c1ccc(C(=O)Nc2ccnc3[nH]ccc23)cc1 + C[C@]1(O)C[C@@H](c2nc(-c3ccc4ccc(-c5ccccc5)nc4c3)c3c(N)nccn32)C1 [Linsitinib] (partner 1 µM)
Method in brief: as §1

[3] = compound: C[C@@H](N)c1ccc(C(=O)Nc2ccnc3[nH]ccc23)cc1 + N=C(N)NC(=N)NCCc1ccccc1 [Phenformin] (partner 250 µM)
Method in brief: as §1

[4] = compound: C1CNCCC1C2=CC(=NN2)C3=CC=NC=C3 + O=C(c1cc(Cc2n[nH]c(=O)c3ccccc23)ccc1F)N1CCN(C(=O)C2CC2)CC1 [Olaparib] (partner 8 µM)
Method in brief: as §1

## COR-L 105
[1]; first compound 0.08 µM
  relative viability: 0.348
[1]; first compound 0.8 µM
  relative viability: 0.311
[1]; first compound 2.53 µM
  relative viability: 0.348
[1]; first compound 8 µM
  relative viability: 0.349
[2]; first compound 0.04 µM
  relative viability: 0.917
[2]; first compound 0.1265 µM
  relative viability: 1.02
[2]; first compound 0.4 µM
  relative viability: 0.857
[2]; first compound 1.265 µM
  relative viability: 0.845
[2]; first compound 4 µM
  relative viability: 0.436
[3]; first compound 0.04 µM
  relative viability: 0.446
[3]; first compound 0.1265 µM
  relative viability: 0.492
[3]; first compound 0.4 µM
  relative viability: 0.523
[3]; first compound 1.265 µM
  relative viability: 0.423
[3]; first compound 4 µM
  relative viability: 0.377
[4]; first compound 0.08 µM
  relative viability: 0.7
[4]; first compound 0.8 µM
  relative viability: 0.721
[4]; first compound 2.53 µM
  relative viability: 0.675
[4]; first compound 8 µM
  relative viability: 0.746

## NCI-H2170
[1]; first compound 0.08 µM
  relative viability: 0.667
[1]; first compound 0.8 µM
  relative viability: 0.621
[1]; first compound 2.53 µM
  relative viability: 0.775
[1]; first compound 8 µM
  relative viability: 0.681
[3]; first compound 0.04 µM
  relative viability: 0.401
[3]; first compound 0.1265 µM
  relative viability: 0.442
[3]; first compound 0.4 µM
  relative viability: 0.492
[3]; first compound 1.265 µM
  relative viability: 0.353
[3]; first compound 4 µM
  relative viability: 0.38
[4]; first compound 0.08 µM
  relative viability: 0.606
[4]; first compound 0.8 µM
  relative viability: 0.632
[4]; first compound 2.53 µM
  relative viability: 0.626
[4]; first compound 8 µM
  relative viability: 0.609

## A549
[2]; first compound 0.04 µM
  relative viability: 0.674
[2]; first compound 0.1265 µM
  relative viability: 0.666
[2]; first compound 0.4 µM
  relative viability: 0.726
[2]; first compound 1.265 µM
  relative viability: 0.775
[2]; first compound 4 µM
  relative viability: 0.619
[3]; first compound 0.04 µM
  relative viability: 0.0717
[3]; first compound 0.1265 µM
  relative viability: 0.256
[3]; first compound 0.4 µM
  relative viability: 0.279
[3]; first compound 4 µM
  relative viability: 0.164
[4]; first compound 0.08 µM
  relative viability: 0.345
[4]; first compound 0.8 µM
  relative viability: 0.303
[4]; first compound 2.53 µM
  relative viability: 0.435
[4]; first compound 8 µM
  relative viability: 0.367

## SW 1573
[1]; first compound 0.8 µM
  relative viability: 0.202
[1]; first compound 2.53 µM
  relative viability: 0.174
[1]; first compound 8 µM
  relative viability: 0.148
[2]; first compound 0.04 µM
  relative viability: 0.763
[2]; first compound 0.1265 µM
  relative viability: 0.873
[2]; first compound 0.4 µM
  relative viability: 0.82
[2]; first compound 1.265 µM
  relative viability: 0.861
[2]; first compound 4 µM
  relative viability: 0.622
[3]; first compound 0.04 µM
  relative viability: 0.363
[3]; first compound 0.1265 µM
  relative viability: 0.487
[3]; first compound 0.4 µM
  relative viability: 0.368
[3]; first compound 1.265 µM
  relative viability: 0.363
[3]; first compound 4 µM
  relative viability: 0.284
[4]; first compound 0.8 µM
  relative viability: 0.612
[4]; first compound 2.53 µM
  relative viability: 0.655
[4]; first compound 8 µM
  relative viability: 0.626
